Laboratory results from ChEMBL document CHEMBL3301451, “MMV Malaria Box gametocyte functional viability assay screening”.

Experiments:
Assay type in all cases: functional
Design in all cases: concentration or dose not given beside the values
[1] = system: Plasmodium falciparum; assay: (§1) MMV: P. falciparum NF54 functionally mature Stage V gametocytes were incubated for 24 hr in the presence of the test compounds. Gamete formation was then triggered by addition of 2uM xantheurenic acid and temperature decrease to ~20C. Male gamete exflagellation was recorded and analysed by automated microscopy after 20 min. All compounds were tested in 4 independent experiments and data presented here is the mean.
[2] = system: Plasmodium berghei; assay: MMV: P. berghei-infected blood was withdrawn from mice by cardiac pucture before being immediately added to ookinete culture medium containing test compounds. 26 hr later, GFP-positive ookinetes were identified and counted by automated microscopy. All compounds were tested in 4 independent experiments and data presented here is the mean.
[3] = system: Plasmodium falciparum; assay: as §1, with “Female” for “Male”, “formation” for “exflagellation”, “24 hr later” for “and analysed”, “detection of surface labelling of female gametes with a Cy3-conjugated antibody reactive to Pfs25.” for “after 20 min.”; settings: NF54, 24 h

Structure (SMILES)	inhibition [1]	inhibition [2]	inhibition [3]
Cl.Oc1ccccc1CNCC12CC3CC(CC(C3)C1)C2	-27.5%	-22.21%	-6.61%
CCOc1cc2c(cc1OCC)C(c1cc(Cl)ccc1O)NCC2 (stereo not given)	4.54%	9.631%	-14.7%
CC(C)CNC(=O)c1c(N)n(CCc2ccccc2F)c2nc3ccccc3nc12	24.1%	-6.274%	-24.2%
COc1nc(Nc2ccc(C(C)C)cc2)nc(OC)n1	-0.697%	-7.623%	-59.5%
CC(C)(C)c1ccc(C(=O)Nc2c3c(nn2-c2cccc(Cl)c2)CSC3)cc1	25.7%	-7.14%	-5.95%
Cc1cccc(N2C(=O)C3C(C2=O)C2(c4ccccc4)C(=O)C3(c3ccccc3)C(c3ccc4c(c3)OCO4)=C2c2ccc3c(c2)OCO3)c1 (stereo not given)	32.3%	-6.32%	-2.01%
CCCCNc1nc(NC(C)(C)C)nc(NC(C)(C)C)n1	-9.24%	83.46%	-29.6%
CCc1ccc(Nc2cc(C)nc3nc(C)nn23)cc1	20.5%	-14.94%	-17.7%
Cc1ccc(-c2cc(C(=O)Nc3ccc(S(=O)(=O)N4CCCCC4)cc3)[nH]n2)c(O)c1	7.64%	-10.93%	-11.2%
COc1ccc(CNC2CCN(c3ccc(NC(=O)c4cccc(Cl)c4)cc3)CC2)cc1OC	15%	-11.96%	-36.5%
CCCCCCc1cc2cc(-c3nc4ccccc4[nH]3)c(=Nc3ccccc3C)oc2cc1O	9.8%	23.15%	5.88%
C=C(C)CCC(C)N1CCC(N2CCC(C(=O)NCCc3ccccc3)CC2)CC1 (stereo not given)	9.7%	-5.335%	-6.85%
O=C(Nc1ccccc1O)c1ccc(-c2ccc(Cl)cc2Cl)o1	18.9%	-6.243%	-20.6%
CC(C)c1ccc(CNCC(O)c2ccccc2)cc1.Cl (stereo not given)	4.92%	-4.617%	-2.85%
c1ccc(/C2=N/c3ccccc3/N=C(/c3ccccc3)c3ccccc32)cc1	41.7%	4.56%	5.88%
Cc1ccc(-c2cc3nc4c(c(O)n3n2)CCCC4)cc1	22.3%	12.06%	-14.6%
CNCCCNc1ccnc2cc(Cl)ccc12	-17.2%	0.238%	-3.53%
Cc1cc(Nc2cccc(F)c2)nc(NCc2ccccc2)n1	20.4%	4.533%	-45.8%
CN(C)CCCNCc1ccc(-c2ccc(F)c(Cl)c2)o1.Cl	51.9%	-12.37%	38.4%
Cc1ccccc1OCCSc1nc2ccc(NC(=O)c3cccs3)cc2s1	11.6%	-6.357%	-2.71%
CCOc1c(Cl)cc(CNC(C)C(O)c2ccccc2)cc1OC (stereo not given)	11.3%	-12.71%	-16%
O=C(Cc1ccccc1)NC(c1ccc(Cl)cc1)c1c(O)ccc2ccccc12 (stereo not given)	54.1%	-6.482%	10.7%

Structure (SMILES)	inhibition [1]	inhibition [2]	inhibition [3]
O=C(NCc1ccco1)C1CCN(S(=O)(=O)c2ccc(Cl)cc2)CC1	46.2%	33.84%	-26.9%
O=C(O)C(=O)O.Oc1ccc(Br)cc1CN1CCN(Cc2cccc(F)c2)CC1	27.2%	-11.78%	-17.6%
CCCCCCC(O)(c1ccc(F)cc1)C(CN1CCOCC1)c1ccccc1.Cl (stereo not given)	-64%	-9.863%	17.7%
O=C(NC1CCN(Cc2ccccc2)CC1)c1cc(C(=O)NC2CCN(Cc3ccccc3)CC2)cc(C(=O)NC2CCN(Cc3ccccc3)CC2)c1	57%	-11.8%	-6.87%
O=C(O)C1Cc2c([nH]c3ccccc23)C(c2ccc(Cl)cc2Cl)N1 (stereo not given)	21%	-13.83%	-17.3%
OC(CNC1CCCC1)Cn1c2ccccc2c2ccccc21 (stereo not given)	-4.27%	-16.75%	12.4%
Cc1ccc(F)cc1NC(=O)c1cc(Cl)ccc1Nc1ccccc1	43.2%	6.256%	-12.6%
COCCNCC(O)Cn1c2ccc(Cl)cc2c2cc(Cl)ccc21 (stereo not given)	-2.59%	-6.812%	-7.62%
C=CC12CCN(CC1)C(C(O)c1ccnc3ccc(OC)cc13)C2.Cl (stereo not given)	-29.1%	-25.15%	-31.3%
COc1ccc(C(=O)C2CC2c2ccc(Cl)cc2)cc1 (stereo not given)	19.4%	-7.167%	-10.6%
O=C(Nc1ccc(Cl)c(Cl)c1)Nc1ccc(Cl)c(Cl)c1	-55.6%	-17.89%	-21.6%
COc1ccc2sc(N(Cc3cccnc3)C(=O)c3ccc(C#N)cc3)nc2c1	18.5%	-20.76%	-25.4%
Cc1cc(Nc2ccc(OCc3ccccc3)cc2)nc2cc(O)ccc12	32.7%	-6.891%	6.66%
Cc1ccc(N2C(=O)C3C(C2=O)C2(c4ccccc4)C(=O)C3(c3ccccc3)C(c3ccccc3)=C2c2ccccc2)cc1 (stereo not given)	21.2%	-15.1%	-19.9%
O=C(Nc1ccc(CN2CCOCC2)cc1)c1ccc(-c2cc(Cl)ccc2Cl)o1	2.57%	-15.91%	-21.4%
COc1ccc2nc(C)cc(Nc3ccc(Cl)cc3)c2c1	-17.3%	4.092%	-15.3%
OCCNc1nc(Nc2ccc(Cl)c(Cl)c2)nc2ccccc12	-35.4%	17.26%	-25.8%
CCCc1c(C)nc2ccc(Br)cc2c1O	-14.5%	47.59%	-18.5%
COc1cc(SC)ccc1C(=O)N1CCCC(C)C1 (stereo not given)	23.2%	-13.09%	6.66%
CC1=C(CC(=O)c2cccc([N+](=O)[O-])c2)C(=O)c2ccccc2C1=O	-2.58%	-6.724%	-17.4%
CC(C)(C)c1ccc(O)c(CNC2CCCCC2)c1	-29.4%	-33.89%	3.67%
Oc1ccc2ccccc2c1CNc1nc2ccccc2[nH]1	31.6%	-28.7%	-19.1%

Structure (SMILES)	inhibition [1]	inhibition [2]	inhibition [3]
COc1cccc(O)c1CN1CCC2(CCCN(Cc3ccc(F)cc3)C2)C1 (stereo not given)	-5.07%	0.1358%	-15.6%
CCCCc1ccc(NS(=O)(=O)c2cc3c4c(c2)CCN4C(=O)CC3)cc1	15.5%	-6.551%	-27.1%
COc1ccc(C(C)=O)cc1N1C(=O)C2C(C1=O)C1(c3ccccc3)C(=O)C2(c2ccccc2)C(c2ccc(C)cc2)=C1c1ccc(C)cc1 (stereo not given)	21.8%	-19.71%	-9.11%
Cc1cc(Nc2ccc(Cl)cc2)n2nc(C(F)(F)F)nc2n1	15.3%	-18.89%	-10.6%
O=C(NC(c1ccccc1)c1ccc2cccnc2c1O)c1ccccc1 (stereo not given)	5.16%	6.162%	-22.7%
CCCCCCc1cc(O)c2c3c(c(=O)oc2c1)CCC(C)C3 (stereo not given)	-1.29%	-17.21%	-7.13%
O=C(Nc1cccc(C(F)(F)F)c1)c1cc(Cl)ccc1O	24.9%	-2.67%	-6.94%
COc1cc(C(=O)Nc2ccc(-c3nc4ccccc4[nH]3)cc2)cc(OC)c1OC	-40.5%	21.1%	-25.2%
O=C(CCl)NCCOc1ccc(Cl)cc1Cl	13.7%	-18.34%	-30.6%
O=C(CCc1ccccc1)c1ccccc1OCC(O)CN1CCCCC1 (stereo not given)	22.9%	-0.1506%	-34.8%
O=C(CCc1ccco1)NC1CCN(CC2(c3ccc(Cl)cc3)CCC2)CC1	39.4%	1.599%	-33.1%
Nc1ccn([C@@H]2O[C@H](CO)[C@@H](O)[C@H]2O)c(=O)n1 [CYTIDINE]	-18.8%	-17.3%	-25.7%
O=C(Nc1ccc(F)c(Cl)c1)Nc1ccc(Cl)c(Cl)c1	15.7%	-10.47%	-12.2%
COc1ccc(C2NCCc3c2[nH]c2ccccc32)cc1CN1CCN(c2ccc(F)cc2)CC1.Cl (stereo not given)	5.86%	-1.071%	-18.1%
CCOc1cc(Br)c(C(C)NC(=O)c2cccc(OC)c2)cc1OCC (stereo not given)	10.3%	-20.12%	-28.3%
Cc1ccc(OCCCCCCNCCO)c(C)c1	-19.1%	-11.75%	0.189%
COc1cc(C(=O)ON=C(N)Cc2cccc3ccccc23)cc(OC)c1OC	-12.8%	-15.26%	-26.8%
Cc1ccc(-c2cc3c(nn2)-c2ccccc2C3=O)cc1	30.4%	22.47%	-20.4%
Cc1cc(NCCN2CCCCC2)c2ccc3ccccc3c2n1	-47.9%	-8.584%	7.19%
FC(F)(F)c1ccc(Nc2nnnc3ccccc23)cc1	33.7%	36.6%	-30.5%
CCCc1c(CC)c(=N)c2ccccc2n1C	-39.2%	-31.4%	-32.4%
